Test results from ChEMBL document CHEMBL1201862, “PubChem BioAssay data set” (2004).
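A five-concentration, 48-hour dose response in 96-well plates underlies each endpoint, interpolated linearly between surrounding concentrations. Abbreviation: GI50, concentration required for 50% inhibition of growth.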 The source made the active and inactive calls. Cut-off read from the data, not from the text of the source: active = GI50 up to about 1.1 µM and inactive = higher.

Key:
Assay in all cases: NCI-60 cell line screen, 48 h
[1] = test system: HOP-62
[2] = test system: SNB-75
[3] = test system: K562
[4] = test system: HL-60
[5] = test system: EKVX
[6] = test system: CCRF-CEM
[7] = test system: HT-29
[8] = test system: NCI-H23
[9] = test system: COLO 205
[10] = test system: SN12C
[11] = test system: RPMI-8226
[12] = test system: RXF 393
[13] = test system: SK-MEL-2
[14] = test system: NCI-H226
[15] = test system: M19-MEL
[16] = test system: DMS-273
[17] = test system: SK-MEL-28
[18] = test system: U-251
[19] = test system: SF-268

Measured: GI50

CN1CCc2[nH]c3ccccc3c2C1
inactive: [1] > 100 µM | [2] > 100 µM | [3] > 100 µM | [4] 87.9 µM | [5] > 100 µM | [6] > 100 µM | [7] > 100 µM | [8] > 100 µM | [9] > 100 µM | [10] > 100 µM | [11] > 100 µM | [12] > 100 µM | [13] > 100 µM | [14] > 100 µM | [15] > 100 µM | [16] > 100 µM | [17] > 100 µM | [18] > 100 µM | [19] > 100 µM

C/C(=C\c1ccccc1)C(=O)CCN1CCOCC1
inactive: [1] > 100 µM | [2] 23.7 µM | [3] 30.1 µM | [4] 33.7 µM | [5] 27.8 µM | [6] 30.6 µM | [7] 18.8 µM | [8] 16.9 µM | [9] 17.2 µM | [10] 18.2 µM | [11] 3.15 µM | [12] 19.7 µM | [13] 27.2 µM | [14] > 46.1 µM | [15] 17.2 µM | [16] 19.7 µM | [17] 19.4 µM | [18] 18.1 µM | [19] 32.1 µM

CC(C)OP(=O)(OC(C)C)c1ncn(-c2ccc([N+](=O)[O-])cc2)n1
inactive: [1] > 100 µM | [2] 41.1 µM | [3] > 100 µM | [4] > 100 µM | [5] > 100 µM | [6] > 100 µM | [7] > 100 µM | [8] > 100 µM | [9] > 100 µM | [10] > 100 µM | [11] > 100 µM | [12] > 100 µM | [13] > 100 µM | [14] > 100 µM | [15] > 100 µM | [16] > 100 µM | [17] > 100 µM | [18] > 100 µM | [19] > 100 µM
